# Assay results as given in patent publication US11427588B2, “Compositions and methods for treating neurodegenerative diseases and cardiomyopathy” (THE REGENTS OF THE UNIVERSITY OF CALIFORNIA, priority 2013, dated 2022).
# B1: PINK1^wt (Homo sapiens) (protein)
# chain: LQGFRLEEYLIGQSIGKGCSAAVYEATMPTLPQNLEVTKSTGLLPGRGPGTSAPGEGQERAPGAPAFPLAIKMMWNISAGSSSEAILNTMSQELVPASRVALAGEYGAVTYRKSKRGPKQLAPHPNIIRVLRAFTSSVPLLPGALVDYPDVLPSRLHPEGLGHGRTLFLVMKNYPCTLRQYLCVNTPSPRLAAMMLLQLLEGVDHLVQQGIAHRDLKSDNILVELDPDGCPWLVIADFGCCLADESIGLQLPFSSWYVDRGGNGCLMAPEVSTARPGPRAVIDYSKADAWAVGAIAYEIFGLVNPFYGQGKAHLESRSYQEAQLPALPESVPPDVRQLVRALLQREASKRPSARVAANVLHLSLWGEHILALKNLKLDKMVGWLLQQSAATLLANRLTEKCCVETKMKMLFLANLECETLCQAALLLCSWRAAL
# notes: kinase domain with c-terminal extension (PINK1, residues 148-581) with a C-terminal FLAG3 tag; made in house; host or cells: baculovirus / Sf21 insect cells
# Tests used:
# [1] = test system: PINK1 knockout derived hippocampal neurons; experiment: Mitochondrial motility assay in axons; format: cell-based, mouse
# Source text: (§1) Mitochondrial motility assay: Primary hippocampal neuronal cultures were co-transfected with mitochondrial targeted GFP (mitoGFP) and mCherry-tagged synaptophysin (mCherrySynaptophysin) to allow for the live identification of mitochondria in axons.
# (§2) To test if kinetin decreases motility we examined the mobility of axonal mitochondria in hippocampal neurons. Primary hippocampal neuronal cultures were co-transfected with mitoGFP and mCherry-tagged Synaptophysin (mCherrySynaptophysin) to allow for the live identification of mitochondria in axons. […] To test the PINK1 dependency of this process, we treated control mouse C57 (PINK1 wildtype) and PINK1 knockout derived hippocampal neurons with kinetin or 9MK and imaged their mitochondria.
# rat hippocampal neurons = experiment: Mitochondrial motility assay in axons; format: cell-based; details: 50 μM, 48 hours pre-treatment
# Source text: as §1, §2
# HeLa cells = experiment: Parkin recruitment to depolarized mitochondria in HeLa cells, PINK1 form not stated; format: cell-based
# Protocol: Parkin phosphorylation and mitochondrial translocation assay: HeLa cells were grown in DMEM supplemented with 10% FBS. Log phase cells were plated in 24 well plates with glass coverslips (Mattek) pretreated with fibronectin. Cells were pretreated with 50 μM of the indicated compound, followed by transfection with MitoGFP, mCherry Parkin, and full length PINK1FLAG3 in a 1:4:2 ratio using Fugene 6 (Promega). Fields of cells were selected by expression of MitoGFP (6 fields/well-3 wells/condition) and imaged at five-minute intervals following depolarization with 5 μM CCCP. Quantification was performed according to published protocols^3 and by creation of a Matlab based script.
# Our ability to enhance PINK1 activity in-vitro using KTP led us to investigate means by which to achieve enhanced activity in cells expressing PINK1. […] We treated cells with either kinetin or adenine (FIG. 2A) and measured Parkin localization following mitochondrial depolarization with CCCP (FIG. 2B). HeLa cells, which have low levels of endogenous PINK1 and PARKIN, were transfected with wildtype or PINK1^G309D, mCherryParkin, and mitoGFP. After 48 hours of incubation with 25 μM adenine, kinetin or equivalent DMSO, we imaged CCCP-mediated depolarization of mitochondria (FIGS. 2C, 2D) and calculated the percentage of GFP labelled mitochondria with mCherryParkin associated (FIG. 2E). […]
# PINK1^wt = PINK1^wt (Homo sapiens, UniProt Q9BXM7); experiment: PINK1 kinase assay with ATP analogs (autophosphorylation, TRAP1 transphosphorylation); format: biochemical, H. sapiens; set-up: kinase domain with c-terminal extension (PINK1, residues 148-581) with a C-terminal FLAG3 tag; made in house; host or cells: baculovirus / Sf21 insect cells; details: for utilization to phosphorylate TRAP1: SF21 expressed PINK1; for transphosphorylation of TRAP1, activity versus ATP: GST tagged kinase domain 156-496 expressed in E. coli
# Source text: (§3) We expressed both PINK1^wt and PINK1^G309D GST tagged kinase domain (156-496PINK1) in E. coli and performed kinase assays with a series of ATP analogs.
# (§4) Expression, purification and enzymatic characterization of PINK1: H. sapiens PINK1 kinase domain (PINK1, residues 156-496) with an N-terminal GST tag was expressed using a pGEX vector using standard techniques. H. sapiens PINK1 kinase domain with c-terminal extension (PINK1, residues 148-581) with a C-terminal FLAG3 tag was co-expressed with full length TRAP1 baculovirus/Sf21 insect cell system. […] The reaction was performed using 50 mM Tris-HCl, 150 mM NaCl, 10 mM MgCl2, 3 mM MnCl2, 0.5 mM DTT and 1 mg/ml substrate if indicated.
# (§5) We constructed several FLAG3 tagged truncation variants of PINK1 and induced expression using baculovirus infected SF21 insect cells.
# (§6) We expressed GST tagged kinase domain (PINK11156-496) in E. coli and performed a kinase assay.
# PINK1^G309D = PINK1^G309D (Homo sapiens, UniProt Q9BXM7, G309D); experiment: as above; format: biochemical, H. sapiens; set-up: kinase domain with c-terminal extension (PINK1, residues 148-581) with a C-terminal FLAG3 tag; made in house; host or cells: baculovirus / Sf21 insect cells; details: GST tagged kinase domain 156-496 expressed in E. coli
# Source text: as §3, §4, §5, §6
# [2] = substrate: Nc1ncnc2c1ncn2[C@@H]1O[C@H](COP(=O)(O)OP(=O)(O)OP(=O)(O)O)[C@@H](O)[C@H]1O; experiment: purified protein, by the assay type; format: biochemical, H. sapiens; details: other: catalytic constants for PINK1, nucleotide as substrate, autophosphorylation, SF21 expressed PINK1 148-581
# [3] = catalytic constants for PINK1, nucleotide as substrate, autophosphorylation, SF21 expressed PINK1 148-581
# Chain of PINK1^G309D (Q9BXM7 148-581 G309D): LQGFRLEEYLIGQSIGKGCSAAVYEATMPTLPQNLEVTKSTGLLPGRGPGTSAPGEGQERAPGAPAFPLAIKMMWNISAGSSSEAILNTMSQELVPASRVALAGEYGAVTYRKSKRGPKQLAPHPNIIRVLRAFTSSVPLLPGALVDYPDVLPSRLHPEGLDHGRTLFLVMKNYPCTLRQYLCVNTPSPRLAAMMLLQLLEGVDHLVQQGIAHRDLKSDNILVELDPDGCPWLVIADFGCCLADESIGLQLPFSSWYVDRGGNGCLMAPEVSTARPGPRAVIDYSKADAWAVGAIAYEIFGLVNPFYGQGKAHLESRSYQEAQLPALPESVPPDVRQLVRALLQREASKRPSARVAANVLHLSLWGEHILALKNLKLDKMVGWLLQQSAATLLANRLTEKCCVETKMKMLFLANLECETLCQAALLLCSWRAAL
molecule,measurement,setting,value
"Cn1cnc2c(NCc3ccco3)ncnc21 [9-methyl-Kinetin, reference compound]",mitochondrial motility,[1],no change in motility
same,mitochondrial movement / motility,rat hippocampal neurons,did not affect mitochondrial motility
"c1ccc(CNc2ncnc3nc[nH]c23)cc1 [N6 benzyl adenine, reference compound]",Parkin recruitment to CCCP depolarized mitochondria,HeLa cells,less active than kinetin
"O=P(O)(O)OP(=O)(O)OP(=O)(O)OC[C@H]1O[C@@H](n2cnc3c(NCc4ccccc4)ncnc32)[C@H](O)[C@@H]1O [N^6 Benzyl, N^6 Benzyl ATP, reference compound]",utilization to phosphorylate TRAP1,PINK1^wt,not
"O=P(O)(O)OP(=O)(O)OP(=O)(O)OC[C@H]1O[C@@H](n2cnc3c(NCCc4ccccc4)ncnc32)[C@H](O)[C@@H]1O [N^6 Phenethyl ATP, reference compound]",utilization to phosphorylate TRAP1,PINK1^wt,not
N^6 furfuryl ATP [KTP],autophosphorylation,PINK1^G309D,increased levels of autophosphorylation
same,"transphosphorylation of TRAP1, activity versus ATP",PINK1^G309D,amplified
same,"transphosphorylation of TRAP1, activity versus ATP",PINK1^G309D; listed as N^6 FF ATP,increased catalytic rate than ATP
same,PINK1 activity stimulation versus other N6 substituted ATP analogs,PINK1^wt; FIG. 12,stimulated
same,"transphosphorylation of TRAP1, activity versus ATP",PINK1^wt,amplified
same,"transphosphorylation of TRAP1, activity versus ATP",PINK1^wt; listed as N^6 FF ATP,more efficiently than ATP
same,fold higher Vmax versus ATP,PINK1^wt; PINK1 autophosphorylation,1.84 fold
same,utilization to phosphorylate TRAP1,PINK1^wt,utilizes
same,Km,PINK1^wt; [3],51.7 µM
same,Vmax,PINK1^wt; [3],0.0098 ± 0.002 min⁻¹
B1,Km,[2],18.4 µM
same,kcat,[2],0.0053 ± 0.001 min⁻¹
